From patent US7244557B2, “Method of screening modulators of Nod1 signaling” (Regents of the University of Michigan, priority 2003, dated 2007) come the findings set out here.

Common to all, as to type: cell-based
One assay addresses T1, NOD1 (Homo sapiens, UniProt Q9Y239).
T1 construct: expressed in transfected cells; host or cells: HEK293T
T1 sequence (Q9Y239 1-953): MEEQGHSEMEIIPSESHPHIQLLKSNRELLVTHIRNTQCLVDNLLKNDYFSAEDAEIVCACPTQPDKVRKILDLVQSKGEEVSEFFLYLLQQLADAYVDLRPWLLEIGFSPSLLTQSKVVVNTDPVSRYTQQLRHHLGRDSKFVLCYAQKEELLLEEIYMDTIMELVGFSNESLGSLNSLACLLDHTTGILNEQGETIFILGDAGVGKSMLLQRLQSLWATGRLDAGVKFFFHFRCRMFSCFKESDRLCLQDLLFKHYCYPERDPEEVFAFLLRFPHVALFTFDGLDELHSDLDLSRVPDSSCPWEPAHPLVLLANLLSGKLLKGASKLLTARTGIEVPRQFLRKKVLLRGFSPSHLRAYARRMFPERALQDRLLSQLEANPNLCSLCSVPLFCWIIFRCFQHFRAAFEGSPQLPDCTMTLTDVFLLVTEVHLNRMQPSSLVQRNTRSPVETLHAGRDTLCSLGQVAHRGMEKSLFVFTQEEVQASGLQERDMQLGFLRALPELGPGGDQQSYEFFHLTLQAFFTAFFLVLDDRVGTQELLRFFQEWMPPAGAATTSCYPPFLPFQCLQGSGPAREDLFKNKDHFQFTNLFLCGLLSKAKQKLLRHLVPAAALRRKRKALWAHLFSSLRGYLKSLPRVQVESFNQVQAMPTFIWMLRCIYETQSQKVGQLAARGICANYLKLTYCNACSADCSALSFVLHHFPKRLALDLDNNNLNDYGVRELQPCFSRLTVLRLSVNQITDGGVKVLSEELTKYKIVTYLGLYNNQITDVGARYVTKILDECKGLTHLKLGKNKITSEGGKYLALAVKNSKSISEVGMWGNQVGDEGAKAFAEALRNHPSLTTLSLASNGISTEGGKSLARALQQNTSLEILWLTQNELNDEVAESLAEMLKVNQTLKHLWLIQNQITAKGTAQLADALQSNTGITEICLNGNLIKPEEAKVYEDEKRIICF
Kind of assay: NF-κB-dependent luciferase reporter assay, HEK293T cells expressing NOD1. An excerpt:
Reagents. LPS from S. typhimurium, intact and alkaline-detoxified LPS from E. coli O55:B5 as well as purified lipid A preparations of E. coli F583, MDP, DAP and dsRNA were obtained from Sigma-Aldrich (St. Louis, Mo.). PGN from S. aureus was from Fluka-Chemie (Buchs, Germany). Palmitoyl-Cys ((RS)-2,3-di(palmitoyloxy)-propyl)-Ala-Gly) (sBLP), was obtained from Bachem (Torrance, Calif.). The tetrameric form of the disaccharide dipeptide was described previously (Inohara et al., J. Biol. Chem. 278:5509 [2003]). iE-DAP and iQ-DAP, M3P and M4P were synthesized as described (Kitaura et al., J. Med. Chem. 25:335 [1982]) with small modification. Purification of PGN from B. subtilis 168 and C. flaccumfaciens with hydrolases, Cellosyl or recombinant AtlE (amidase domain) and the fractionation and purification of reduced B. subtilis PGN digested with Cellosyl were performed as previously described (Heilman et al., Mol. Microbiol. 24:1013 [1997]; Atrih et al., J. Bact. 181:3956 [1999]). Removal of proteins and reduction of LPS fraction. E. coli O55:B5 LPS (Sigma) was treated with proteinase K at 37° C. for 12 hr to digest contaminating proteins. To eliminate lipoproteins, LPS was subjected to modified phenol extraction with deoxycholate-containing phenol as described (Hirschfeld et al., J. Immunol. 165:618 [2000]). For reduction of carboxyl group in the LPS, the LPS was treated with 1-ethyl-3-(3-dimethylaminopropyl) carbodiimide and then reduced with NaBH4 as described (Taylor et al., Biochemistry 11:1383 [1972]). Preparation of E. coli extract. E. coli K-12 mutants were all based on the SØ864 genetic background (lacZ trp upp relA rpsL) (Neuhard and Thomassen, J. Bacteriol. 126:999). SØ874 carries a large chromosomal deletion removing the gene clusters for the biosynthesis of CA capsule and O-antigen. CLM5 is a derivative of SØ874 with a transposon insertion in the wecC gene that blocks the synthesis of ECA (Marolda et al., J. Bacteriol. 177:5539[1995]). FAM5 is a derivative of SØ874 carrying a deletion that eliminates the incorporation of heptose in the LPS core. Extracts were prepared from all of these E. coli K-12 strains and also from another E. coli K-12 strain, LCD27 YA21-6 (Obtained from Dr. Arisaka, Tokyo Institute of Technology). Bacteria were cultured overnight at 37° C. in Luria broth, killed by treatment with acetone followed by vacuum drying and finally resuspended in 10 mM HEPES. The extract was treated with 1M NaOH at 55° C. for 12 hr and neutralized with 1M HEPES (pH 7.4). The soluble fraction after centrifugation and filtration with 0.22 μm filter was applied to SUPEROSE 12 gel filtration column chromatography. Partial purification of NOD1-stimulatory molecules from E. coli and composition analyses. The amino acid composition of E. coli O55:B5 LPS was determined using AccQ·Tag amino acid analysis system (Waters, Milford, Mass.) after hydrolysis at 110° C. for 24 hr. For carbohydrate analysis, E coli K-12 YA21-6 (Ref 26) cultured overnight at 37° C. in L-broth were washed with TBS twice and incubated with TBS containing 1 mglml DNase I, RNase I and lysozyme for 37° C. for 2 hr. Acetone was added to the extracts at 50% final concentration and the insoluble fractions were washed with an excess of 75% and 100% acetone. After vacuum drying, the acetone extract was solublized with 1 M NaOH and incubated at 60° C. for 24 hr. The pH was adjusted to pH 5.0 with acetic acid and the soluble fraction was passed through SUPEROSE gel filtration column. SUPEROSE fractions with NOD1-stimulatory activity were diluted with 10 mM Tris-HCl (pH 8.8) and subjected to UnoQ column chromatography. The fractions were eluted with a linear gradient of 0–300 mM NaCl. The positive fractions were dialyzed against water and dried under vacuum. The monosaccharide composition of the fractions after TFA/methanol degradation was determined as previously described (Forsberg et al., J. Biol. Chem. 273:2747[1998]). Transfection and NF-κB Activation Assay. […]
On the technique in general: Reporter assays use an easily measured gene product as a stand-in for the process of interest.

In a further assay the target is T2, NOD2 (Homo sapiens, UniProt Q9HC29).
T2 construct: expressed in transfected cells; host or cells: HEK293T
Kind of assay: NF-κB-dependent luciferase reporter assay, HEK293T cells expressing NOD2. The source says: (§1) Reagents. LPS from S. typhimurium, intact and alkaline-detoxified LPS from E. coli O55:B5 as well as purified lipid A preparations of E. coli F583, MDP, DAP and dsRNA were obtained from Sigma-Aldrich (St. Louis, Mo.). PGN from S. aureus was from Fluka-Chemie (Buchs, Germany). Palmitoyl-Cys ((RS)-2,3-di(palmitoyloxy)-propyl)-Ala-Gly) (sBLP), was obtained from Bachem (Torrance, Calif.). The tetrameric form of the disaccharide dipeptide was described previously (Inohara et al., J. Biol. Chem. 278:5509 [2003]). iE-DAP and iQ-DAP, M3P and M4P were synthesized as described (Kitaura et al., J. Med. Chem. 25:335 [1982]) with small modification. Purification of PGN from B. subtilis 168 and C. flaccumfaciens with hydrolases, Cellosyl or recombinant AtlE (amidase domain) and the fractionation and purification of reduced B. subtilis PGN digested with Cellosyl were performed as previously described (Heilman et al., Mol. Microbiol. 24:1013 [1997]; Atrih et al., J. Bact. 181:3956 [1999]). Removal of proteins and reduction of LPS fraction. […] The amino acid composition of E. coli O55:B5 LPS was determined using AccQ·Tag amino acid analysis system (Waters, Milford, Mass.) after hydrolysis at 110° C. for 24 hr. […] The monosaccharide composition of the fractions after TFA/methanol degradation was determined as previously described (Forsberg et al., J. Biol. Chem. 273:2747[1998]). […]

For another assay, the target named is T3, TLR4/MD-2 (Homo sapiens, UniProt O00206+Q9Y6Y9).
T3 construct: expressed in transfected cells; host or cells: HEK293T
Kind of assay: NF-κB-dependent luciferase reporter assay, HEK293T cells expressing TLR4 with co-factor MD-2.
Description: as §1

T2 sequence (Q9HC29 whole entry): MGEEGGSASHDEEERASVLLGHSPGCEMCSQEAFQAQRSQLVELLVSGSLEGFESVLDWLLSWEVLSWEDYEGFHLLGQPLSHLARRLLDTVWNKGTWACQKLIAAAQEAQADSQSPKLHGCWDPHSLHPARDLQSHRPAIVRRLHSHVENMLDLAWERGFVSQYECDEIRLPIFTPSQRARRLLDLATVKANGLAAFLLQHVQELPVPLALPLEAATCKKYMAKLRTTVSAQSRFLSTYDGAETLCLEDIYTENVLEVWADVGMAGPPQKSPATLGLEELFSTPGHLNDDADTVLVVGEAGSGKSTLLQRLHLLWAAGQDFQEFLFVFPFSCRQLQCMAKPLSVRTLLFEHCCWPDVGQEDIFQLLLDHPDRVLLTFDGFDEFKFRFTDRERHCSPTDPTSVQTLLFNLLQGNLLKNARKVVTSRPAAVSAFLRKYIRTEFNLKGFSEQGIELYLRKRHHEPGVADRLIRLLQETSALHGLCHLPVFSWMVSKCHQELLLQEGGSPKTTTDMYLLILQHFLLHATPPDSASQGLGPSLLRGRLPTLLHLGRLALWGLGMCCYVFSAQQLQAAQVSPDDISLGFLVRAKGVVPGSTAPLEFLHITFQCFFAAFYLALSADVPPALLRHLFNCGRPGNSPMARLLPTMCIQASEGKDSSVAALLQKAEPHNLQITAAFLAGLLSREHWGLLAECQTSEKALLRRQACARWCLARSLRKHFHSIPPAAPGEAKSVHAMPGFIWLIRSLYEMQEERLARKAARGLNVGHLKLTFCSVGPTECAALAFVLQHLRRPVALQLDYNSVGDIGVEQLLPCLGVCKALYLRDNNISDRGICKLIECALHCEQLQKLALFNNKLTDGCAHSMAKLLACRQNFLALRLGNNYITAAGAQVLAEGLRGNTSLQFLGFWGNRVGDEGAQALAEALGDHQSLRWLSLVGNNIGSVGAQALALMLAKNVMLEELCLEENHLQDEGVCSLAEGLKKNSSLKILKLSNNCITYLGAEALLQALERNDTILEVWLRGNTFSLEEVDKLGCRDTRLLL
T3 sequence (O00206 24-839, species assumed): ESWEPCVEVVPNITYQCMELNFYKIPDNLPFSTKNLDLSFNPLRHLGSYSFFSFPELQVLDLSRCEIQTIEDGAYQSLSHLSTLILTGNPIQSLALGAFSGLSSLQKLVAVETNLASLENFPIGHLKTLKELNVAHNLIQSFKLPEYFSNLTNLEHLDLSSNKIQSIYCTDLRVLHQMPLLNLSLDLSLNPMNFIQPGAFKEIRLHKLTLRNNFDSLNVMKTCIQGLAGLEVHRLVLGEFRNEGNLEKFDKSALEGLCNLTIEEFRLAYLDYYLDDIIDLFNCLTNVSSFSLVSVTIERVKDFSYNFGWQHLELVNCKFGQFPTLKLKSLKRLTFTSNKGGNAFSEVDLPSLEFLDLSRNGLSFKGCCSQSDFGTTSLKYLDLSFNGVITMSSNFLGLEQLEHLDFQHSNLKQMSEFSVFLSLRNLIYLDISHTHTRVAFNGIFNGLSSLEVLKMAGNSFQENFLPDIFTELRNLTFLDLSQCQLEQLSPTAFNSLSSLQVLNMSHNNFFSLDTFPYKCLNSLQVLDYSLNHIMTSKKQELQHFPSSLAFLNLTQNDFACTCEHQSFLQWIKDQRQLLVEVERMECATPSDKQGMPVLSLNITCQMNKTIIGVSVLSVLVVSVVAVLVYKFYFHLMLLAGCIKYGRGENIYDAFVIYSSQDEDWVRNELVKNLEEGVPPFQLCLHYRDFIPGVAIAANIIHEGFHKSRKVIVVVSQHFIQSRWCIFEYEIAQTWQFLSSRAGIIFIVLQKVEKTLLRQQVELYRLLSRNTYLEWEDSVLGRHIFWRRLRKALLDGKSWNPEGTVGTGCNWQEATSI
T3 sequence (Q9Y6Y9 19-160, species assumed): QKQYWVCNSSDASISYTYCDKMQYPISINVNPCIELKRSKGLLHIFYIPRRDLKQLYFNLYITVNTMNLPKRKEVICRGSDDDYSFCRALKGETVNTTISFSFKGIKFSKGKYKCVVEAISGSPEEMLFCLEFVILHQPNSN

On to `N[C@H](CCC[C@H](N)C(=O)O)C(=O)O` [DAP, diaminopimelic acid], for which the “NOD1-dependent NF-κB activation (NOD1 stimulation)” value (“NOD1-dependent NF-κB activation” for short) at NOD1 is listed as “unable to stimulate NOD1”.
Regarding MurNAc-L-Ala-γ-D-Gln-L-Lys [M3P], the “NOD1-dependent NF-κB activation” value at NOD1 was “failed to stimulate NOD1”.
In the case of MurNAc-L-Ala-γ-D-Gln-L-Lys-D-Ala [M4P], at NOD1, the “NOD1-dependent NF-κB activation” value is “failed to stimulate NOD1”.
Same read-out and setting: the same measure for “N-acetylglucosamine(GlcNAc)-N-acetyl-Muramicitol-L-Ala-γ-D-Glu-meso-DAP [GM3p]”: “stimulated NOD1 in a dose-dependent manner”.
Turning to lipid A, the “NOD2-dependent NF-κB activation” value at NOD2 is “not NOD1 and NOD2”. Further, the “TLR4/MD-2-dependent NF-κB activation” value at TLR4/MD-2 is listed as “responded”. Also, the “NOD1-dependent NF-κB activation” value on NOD1 is “not NOD1 and NOD2”.
